Data as given in PMC12865225 (Clinical and Translational Science, 2026).
Values joined by “and” are separate entries in the source; they are usually repeats but may differ in a detail not shown here. Equal values may be shown once. Marks after values point to notes of the source that are not given here.

Tests used:
OATP1B1 = biological target: T1, OATP1B1 (Homo sapiens, UniProt Q9Y6L6); assay: Uptake transport assay in OATP1B1-expressing HEK293 cells; format: cell-based; settings: for transport by OATP1B1: 2 and 50 μM, 10 min
T1 construct: expressed in transfected cells; host or cells: HEK293 (recombinant baculovirus-mediated transduction)
T1 sequence (Q9Y6L6 1-691): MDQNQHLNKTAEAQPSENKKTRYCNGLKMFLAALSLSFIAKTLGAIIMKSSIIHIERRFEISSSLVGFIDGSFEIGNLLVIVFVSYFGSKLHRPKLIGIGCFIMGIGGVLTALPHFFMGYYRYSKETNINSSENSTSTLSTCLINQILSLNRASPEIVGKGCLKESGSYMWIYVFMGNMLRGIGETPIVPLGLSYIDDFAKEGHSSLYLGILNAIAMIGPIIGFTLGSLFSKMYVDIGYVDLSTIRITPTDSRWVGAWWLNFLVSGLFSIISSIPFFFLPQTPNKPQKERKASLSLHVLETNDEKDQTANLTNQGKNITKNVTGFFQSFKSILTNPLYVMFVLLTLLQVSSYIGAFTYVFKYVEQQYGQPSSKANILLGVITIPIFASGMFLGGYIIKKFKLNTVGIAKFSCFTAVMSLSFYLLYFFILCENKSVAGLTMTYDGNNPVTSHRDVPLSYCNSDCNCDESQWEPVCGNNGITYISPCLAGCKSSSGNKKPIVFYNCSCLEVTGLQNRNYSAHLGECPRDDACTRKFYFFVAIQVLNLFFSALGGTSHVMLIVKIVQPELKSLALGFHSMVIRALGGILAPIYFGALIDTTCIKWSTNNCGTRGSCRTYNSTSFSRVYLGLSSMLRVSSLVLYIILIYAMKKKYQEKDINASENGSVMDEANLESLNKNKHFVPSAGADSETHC
Procedure: (§1) The human transporters OATP1B1, OATP1B3, OATP2B1, and OAT1‐OAT4 and a negative control protein (enhanced yellow fluorescent protein, eYFP) were transiently expressed in human embryonic kidney 293 (HEK293) cells by recombinant baculovirus‐mediated transduction. Baculoviruses carrying human genes for the transporters were prepared as reported previously. HEK293 cells were cultured in DMEM containing 10% fetal bovine serum at 37°C and 5% CO2 and passaged two to three times per week. For the transport studies, 0.05 × 10^6 cells for 48‐well plates (OATPs) or 0.06 × 10^6 cells for 24‐well plates (OATs) were seeded onto cell‐culture treated well plates coated with poly‐D‐lysine. After 1 day, cells were transduced to produce recombinant proteins by changing media to DMEM containing 30 μL (48‐well plates) or 60 μL (24‐well plates) of recombinant baculovirus and 3 mM (OATs) or 5 mM (OATPs) sodium butyrate in a total media volume of 500 μL. The cells were cultured for a further 2 days before the transport assays.
(§2) For the transport studies, media were removed and cells were washed once with warm transport uptake buffer (TP‐buffer—pH 7.4 HBSS with 25 mM HEPES and 4 mM sodium bicarbonate). Each experiment included triplicate (OATP) or duplicate (OAT) samples for every test condition. The uptake was started by removing liquid from wells and applying warm TP‐buffer (200 μL for 24‐well plates or 125 μL for 48‐well plates) containing a test compound to cells. Transport assays were terminated after a pre‐specified incubation time (reported in figure legends) by removing substrate solution and washing cells three times with cold TP‐buffer (300 μL for 48‐well plates and 400 μL for 24‐well plates). For the liquid chromatography mass spectrometry (LC–MS) analysis, compounds were extracted from cells with 125 μL (48‐well plates) or 250 μL (24‐well plates) of an ultrapure‐water solution containing 75% methanol and 0.1% formic acid, shaking at 250 RPM for 30 min. […] Samples were transferred to well plates, centrifuged at 3000 g for 30 min, and transferred to a new well plate for the analysis.
Equation (2) (the Michaelis–Menten equation) was fit to the transport kinetic assay data. […] (2) Uptake=Vmax×S/Km+S

OATP1B3 = biological target: T2, OATP1B3 (Homo sapiens, UniProt Q9NPD5); assay: OATP1B3 inhibition, rosuvastatin uptake into transporter-expressing HEK293 cells; format: cell-based; settings: for IC50: IC50 (95% CI), μM OATP1B3, 2.5 μM rosuvastatin, 2 min, 30 min preincubation; for Calculated R-value OATP1B3: R = 1 + (I in,max,u/IC50), FDA cut-off ≥ 1.1
T2 construct: expressed in transfected cells; host or cells: HEK293 (recombinant baculovirus-mediated transduction)
T2 sequence (Q9NPD5 1-702): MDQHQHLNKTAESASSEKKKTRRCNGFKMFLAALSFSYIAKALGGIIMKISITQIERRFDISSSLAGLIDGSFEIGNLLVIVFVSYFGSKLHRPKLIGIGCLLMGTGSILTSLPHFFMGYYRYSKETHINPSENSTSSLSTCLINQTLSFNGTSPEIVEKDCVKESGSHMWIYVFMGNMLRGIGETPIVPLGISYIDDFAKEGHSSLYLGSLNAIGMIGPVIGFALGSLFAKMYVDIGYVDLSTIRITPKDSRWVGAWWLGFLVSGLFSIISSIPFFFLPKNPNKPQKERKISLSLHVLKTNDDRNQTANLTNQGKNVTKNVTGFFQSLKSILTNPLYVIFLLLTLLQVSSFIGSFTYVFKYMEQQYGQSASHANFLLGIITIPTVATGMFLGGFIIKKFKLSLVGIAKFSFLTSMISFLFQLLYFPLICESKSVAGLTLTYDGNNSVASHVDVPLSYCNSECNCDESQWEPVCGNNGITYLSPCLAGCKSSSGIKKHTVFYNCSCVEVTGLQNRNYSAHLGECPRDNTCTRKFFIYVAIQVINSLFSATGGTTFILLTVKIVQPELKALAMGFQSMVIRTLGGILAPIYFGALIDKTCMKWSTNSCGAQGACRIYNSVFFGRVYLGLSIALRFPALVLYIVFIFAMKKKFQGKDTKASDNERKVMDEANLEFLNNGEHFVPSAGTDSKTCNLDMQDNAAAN
Procedure: as §1, §2
In the OATP inhibition assays, inhibitors in warm TP‐buffer were directly applied to cells after media removal, followed by a 30‐min preincubation step in the presence of inhibitors. […] OAT1 and OAT3 cells were lysed with 200 μL of 1 M sodium hydroxide for 10 min, and 150 μL of these samples were transferred to a black well plate for fluorescein quantification. […]
For the inhibition data analysis, the average of measured concentrations in the control cells was subtracted from the average of measured concentrations in transporter‐expressing cells for each inhibitor concentration and then normalized to the vehicle sample that represents 100% transport activity. […]

transport by OATP1B1 (OATP1B1) | Vmax (pmol/106 cells/min) OATP1B1 (OATP1B1; uptake, 2 min) | IC50 (OATP1B3) | Calculated R-value OATP1B3 (OATP1B3) | Km (OATP1B1; uptake, 2 min) | Compound
transported | 15.9 pmol/106 cells/min | 6.7 µM and 6.68 µM | 1.8 ^a | – | Cc1onc(-c2c(Cl)cccc2Cl)c1C(=O)N[C@@H]1C(=O)N2[C@@H]1SC(C)(C)[C@@H]2C(=O)O [Dicloxacillin]
transported | 23.5 pmol/106 cells/min | 21 µM | 1.7 ^a | 10 to 18 µM | Cc1onc(-c2c(F)cccc2Cl)c1C(=O)N[C@@H]1C(=O)N2[C@@H]1SC(C)(C)[C@@H]2C(=O)O [Flucloxacillin]
